From US20260317324A1, “BIFUNCTIONAL COMPOUNDS FOR DEGRADING BRAF VIA UBIQUITIN PROTEOSOME PATHWAY” (Nurix Therapeutics, Inc., priority 2023, published 2026)

How the values were obtained:
Assay type in all cases: cell-based
[1] = biological target: T1, BRAF G469A (Homo sapiens, UniProt P15056, G469A); experiment: BRAF HiBiT degradation assay, C-terminal HiBiT-tagged BRAF G469A overexpressed in HCT-116 BRAF−/− cells (clone 34), Nano-Glo HiBiT Lytic assay
T1 construct: Horizon Discovery (HCT-116 BRAF−/− cells); host or cells: HCT-116 BRAF−/− cells, clone 34, lentiviral transduction
T1 sequence (P15056 whole entry G469A): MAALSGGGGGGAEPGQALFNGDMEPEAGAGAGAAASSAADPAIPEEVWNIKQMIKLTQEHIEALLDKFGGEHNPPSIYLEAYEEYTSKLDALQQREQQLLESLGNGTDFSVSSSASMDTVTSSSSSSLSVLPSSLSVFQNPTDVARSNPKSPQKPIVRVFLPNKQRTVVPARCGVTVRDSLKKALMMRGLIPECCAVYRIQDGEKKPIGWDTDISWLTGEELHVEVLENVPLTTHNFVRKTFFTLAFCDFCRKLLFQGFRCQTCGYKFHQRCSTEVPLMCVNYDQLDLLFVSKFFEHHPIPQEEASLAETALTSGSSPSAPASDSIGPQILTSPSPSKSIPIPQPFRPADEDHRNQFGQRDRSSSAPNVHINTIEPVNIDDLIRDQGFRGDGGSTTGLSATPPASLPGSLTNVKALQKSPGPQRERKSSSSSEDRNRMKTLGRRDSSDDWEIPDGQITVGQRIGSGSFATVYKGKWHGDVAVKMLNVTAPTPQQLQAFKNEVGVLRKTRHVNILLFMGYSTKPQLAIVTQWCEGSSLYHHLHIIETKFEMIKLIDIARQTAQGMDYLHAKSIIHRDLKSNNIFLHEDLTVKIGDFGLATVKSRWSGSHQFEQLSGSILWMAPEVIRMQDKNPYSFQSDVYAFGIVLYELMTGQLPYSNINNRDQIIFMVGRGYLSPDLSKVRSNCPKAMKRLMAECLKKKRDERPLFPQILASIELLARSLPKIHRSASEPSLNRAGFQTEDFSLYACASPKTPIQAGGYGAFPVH
Outline: (§1)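 We quantified degradation of the C-terminally HiBiT-tagged, overexpressed mutant by lytic luminescence, normalizing to DMSO-treated cells with wild-type HCT-116 background subtracted. Dose series ran from 1 μM to 0.01 nM at 0.2% DMSO. Observed Dmax is % degraded at maximal effect.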

[2] = biological target: T2, BRAF D594G (Homo sapiens, UniProt P15056, D594G); experiment: BRAF HiBiT degradation assay, C-terminal HiBiT-tagged BRAF D594G overexpressed in HCT-116 BRAF−/− cells (clone 63), Nano-Glo HiBiT Lytic assay
T2 construct: Horizon Discovery (HCT-116 BRAF−/− cells); host or cells: HCT-116 BRAF−/− cells, clone 63, lentiviral transduction
T2 sequence (P15056 whole entry D594G): as the sequence (P15056 whole entry G469A) above, with A469G, D594G counted along it
Outline: as §1

[3] = biological target: T3, BRAF G466V (Homo sapiens, UniProt P15056, G466V); experiment: BRAF HiBiT degradation assay, C-terminal HiBiT-tagged BRAF G466V overexpressed in HCT-116 BRAF−/− cells (clone 8), Nano-Glo HiBiT Lytic assay
T3 construct: Horizon Discovery (HCT-116 BRAF−/− cells); host or cells: HCT-116 BRAF−/− cells, clone 8, lentiviral transduction
T3 sequence (P15056 whole entry G466V): as the sequence (P15056 whole entry G469A) above, with G466V, A469G counted along it
Outline: as §1

[4] = biological target: T4, BRAF V600E (Homo sapiens, UniProt P15056, V600E); experiment: BRAF HiBiT degradation assay, C-terminal HiBiT-tagged BRAF V600E A375 cells (clone 1F10), Nano-Glo HiBiT Lytic assay; settings: for Dmax: A-375
T4 construct: endogenous C-terminal HiBiT fusion tag on BRAF V600E allele; endogenous in cells; host or cells: A375 clone 1F10 (CRISPR-Cas9 knock-in of the HiBiT tag; parental A375 from ATCC)
T4 sequence (P15056 whole entry V600E, the tested form may be a part): as the sequence (P15056 whole entry G469A) above, with A469G, V600E counted along it
Outline: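 Steps: seed HiBiT-tagged A375 clone 1F10 cells; incubate 24 h, 37 °C, 5% CO2; add compound (11 half-log points from 1 μM, 0.2% DMSO); lyse with HiBiT detection reagent plus LgBiT for 10 min; read luminescence; fit % protein remaining against concentration.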

[5] = BRAF G469A (Class 2), HCT-116 BRAF−/− cells, DC50 at 50% degradation
[6] = BRAF G469A (Class 2), HCT-116 BRAF−/− cells, observed Dmax relative to DMSO control
[7] = BRAF D594G (Class 3), HCT-116 BRAF−/− cells, DC50 at 50% degradation
[8] = BRAF D594G (Class 3), HCT-116 BRAF−/− cells, observed Dmax relative to DMSO control
[9] = BRAF G466V (Class 3), HCT-116 BRAF−/− cells, DC50 at 50% degradation
[10] = BRAF G466V (Class 3), HCT-116 BRAF−/− cells, observed Dmax relative to DMSO control
[11] = A375 (BRAF V600E, Class 1), DC50 at 50% degradation
[12] = A375 (BRAF V600E, Class 1), observed Dmax, % protein degraded relative to DMSO control
[13] = Class 2, BRAF G469A, DC50 at 50%: fitted conc. at Y=50
[14] = HCT-116, Class 2, BRAF G469A, percentage protein degraded at maximal compound effect relative to DMSO
[15] = BRAF D594G, DC50 at 50%: fitted conc. at Y=50
[16] = HCT-116, BRAF D594G, percentage protein degraded at maximal compound effect relative to DMSO
[17] = BRAF G466V, DC50 at 50%: fitted conc. at Y=50
[18] = HCT-116, BRAF G466V, percentage protein degraded at maximal compound effect relative to DMSO
[19] = A375 (BRAF V600E), DC50 at 50%: fitted conc. at Y=50
[20] = A375 (BRAF V600E), percentage protein degraded at maximal compound effect relative to DMSO

With `CCCS(=O)(=O)Nc1cc(Cl)cc(-c2cn(-c3ccc(N4CCN(CC5CCN(c6ccc(C7CCC(=O)NC7=O)cn6)CC5)[C@@H](C)C4)cc3)nc2-c2ccncc2)c1F` (mixture of isomers) [Compound 279, N-[5-chloro-3-(1-{4-[(3S)-4-[(1-{5-[(3RS)-2,6-dioxopiperidin-3-yl]pyridin-2-yl}piperidin-4-yl)methyl]-3-methylpiperazin-1-yl]phenyl}-3-(pyridin-4-yl)-1H-pyrazol-4-yl)-2-fluorophenyl]propane-1-sulfonamide] the DC50 [1, 5] was 0.01 to 0.05 µM, the Dmax [1, 6] was 30 to 70% and the DC50 [2, 7] was less than 0.01 µM. The Dmax [2, 8] was 30 to 70%, the DC50 [3, 9] was less than 0.01 µM and the Dmax [3, 10] was greater than 70%. It also gave a DC50 [4, 11] of less than 0.01 µM and a Dmax [4, 12] greater than 70%.

`C[C@@H]1CN(c2ccc(-n3cc(-c4cc(Cl)cc(NS(=O)(=O)N5CC[C@@H](F)C5)c4F)c(-c4ccncc4)n3)nc2)CCN1CC1CCN(c2ccc([C@H]3CCC(=O)NC3=O)cc2)CC1` [Compound 320, (3R)—N-[5-chloro-3-(1-{5-[(3R)-4-[(1-{4-[(3R)-2,6-dioxopiperidin-3-yl]phenyl}piperidin-4-yl)methyl]-3-methylpiperazin-1-yl]pyridin-2-yl}-3-(pyridin-4-yl)-1H-pyrazol-4-yl)-2-fluorophenyl]-3-fluoropyrrolidine-1-sulfonamide] showed a DC50 [1, 5] of less than 0.01 µM, a Dmax [1, 6] greater than 70% and a DC50 [2, 7] of less than 0.01 µM. The Dmax [2, 8] was greater than 70%, the DC50 [3, 9] was less than 0.01 µM and the Dmax [3, 10] was greater than 70%. For the same molecule, the DC50 [4, 11] was less than 0.01 µM and the Dmax [4, 12] was greater than 70%.

Molecule `CCCS(=O)(=O)Nc1cccc(-c2nc(C(C)(C)C)sc2-c2ccnc(Nc3cccc(OC4CCN(CC5(C)CCN(c6ccc(C7CCC(=O)NC7=O)cn6)CC5)CC4)c3)n2)c1F` (racemic) [Compound 68, Rac-N-{3-[2-tert-butyl-5-(2-{[3-({1-[(1-{5-[(3R)-2,6-dioxopiperidin-3-yl]pyridin-2-yl}-4-methylpiperidin-4-yl)methyl]piperidin-4-yl}oxy)phenyl]amino}pyrimidin-4-yl)-1,3-thiazol-4-yl]-2-fluorophenyl}propane-1-sulfonamide] has a DC50 [1, 13] of 0.05 to 0.5 µM, a Dmax [1, 14] of 30 to 70% and a DC50 [2, 15] greater than 0.5 µM. It also gave a Dmax [2, 16] of 30 to 70%, a DC50 [3, 17] of 0.05 to 0.5 µM and a Dmax [3, 18] of 30 to 70%. The DC50 [4, 19] was 0.01 to 0.05 µM and the Dmax [4, 20] was greater than 70%.

In the case of `O=C1CC[C@H](c2ccc(N3CCC(CN4CCN(c5ccc(-n6cc(-c7cc(Cl)cc(NS(=O)(=O)N8CCCC8)c7F)c(-c7ccncc7)n6)cc5)CC4)CC3)cc2F)C(=O)N1` [Compound 344, N-{5-chloro-3-[1-(4-{4-[(1-{4-[(3R)-2,6-dioxopiperidin-3-yl]-3-fluorophenyl}piperidin-4-yl)methyl]piperazin-1-yl}phenyl)-3-(pyridin-4-yl)-1H-pyrazol-4-yl]-2-fluorophenyl}pyrrolidine-1-sulfonamide], the DC50 [1, 5] is reported as less than 0.01 µM, the Dmax [1, 6] is reported as greater than 70% and the DC50 [2, 7] is reported as less than 0.01 µM. For the same molecule, the Dmax [2, 8] was greater than 70%, the DC50 [3, 9] was less than 0.01 µM and the Dmax [3, 10] was greater than 70%. It also gave a DC50 [4, 11] of less than 0.01 µM and a Dmax [4, 12] greater than 70%.

For `CCN(C)S(=O)(=O)Nc1cccc(-c2nc(C(C)(C)C)sc2-c2ccnc(Nc3ccc(N4CCN(C(=O)C5CCN(c6ccc(C7CCC(=O)NC7=O)cn6)CC5)CC4)cn3)n2)c1F` (racemic) [Compound 56, Rac-(3R)-3-[6-(4-{4-[6-({4-[2-tert-butyl-4-(3-{[ethyl(methyl)sulfamoyl]amino}-2-fluorophenyl)-1,3-thiazol-5-yl]pyrimidin-2-yl}amino)pyridin-3-yl]piperazine-1-carbonyl}piperidin-1-yl)pyridin-3-yl]piperidine-2,6-dione], the DC50 [1, 13] was 0.01 to 0.05 µM, the Dmax [1, 14] was 30 to 70% and the DC50 [2, 15] was less than 0.01 µM. The Dmax [2, 16] was 30 to 70%, the DC50 [3, 17] was less than 0.01 µM and the Dmax [3, 18] was 30 to 70%. The DC50 [4, 19] was less than 0.01 µM and the Dmax [4, 20] was greater than 70%.

With `CCN(C)S(=O)(=O)Nc1cccc(-c2nc(C(C)(C)C)sc2-c2ccnc(Nc3ccc(N4CCN(CC5CCN(c6ccc([C@@H]7CCC(=O)NC7=O)cc6)CC5)CC4)cn3)n2)c1F` [Compound 127, (3S)-3-{4-[4-({4-[6-({4-[2-tert-butyl-4-(3-{[ethyl(methyl)sulfamoyl]amino}-2-fluorophenyl)-1,3-thiazol-5-yl]pyrimidin-2-yl}amino)pyridin-3-yl]piperazin-1-yl}methyl)piperidin-1-yl]phenyl}piperidine-2,6-dione] the DC50 [1, 13] was 0.01 to 0.05 µM, the Dmax [1, 14] was 30 to 70% and the DC50 [2, 15] was less than 0.01 µM. The Dmax [2, 16] was 30 to 70%, the DC50 [3, 17] was 0.01 to 0.05 µM and the Dmax [3, 18] was 30 to 70%. It also gave a DC50 [4, 19] of 0.01 to 0.05 µM and a Dmax [4, 20] greater than 70%.

In the case of `CCCS(=O)(=O)Nc1cccc(-c2nc(C3CCC4(CC3)CCN(CC3CCN(c5ccc(C6CCC(=O)NC6=O)cn5)CC3)CC4)sc2-c2ccnc(N)n2)c1F` (racemic) [Compound 260, Rac-N-{3-[5-(2-aminopyrimidin-4-yl)-2-{3-[(1-{5-[(3R)-2,6-dioxopiperidin-3-yl]pyridin-2-yl}piperidin-4-yl)methyl]-3-azaspiro[5.5]undecan-9-yl}-1,3-thiazol-4-yl]-2-fluorophenyl}propane-1-sulfonamide], the DC50 [1, 5] is reported as greater than 0.5 µM, the Dmax [1, 6] is reported as less than 30% and the DC50 [2, 7] is reported as greater than 0.5 µM. For the same molecule, the Dmax [2, 8] was less than 30%, the DC50 [3, 9] was greater than 0.5 µM and the Dmax [3, 10] was less than 30%. For the same molecule, the DC50 [4, 11] was 0.01 to 0.05 µM and the Dmax [4, 12] was 30 to 70%.

In the case of `C[C@@H]1CN(c2ccc(-n3cc(-c4cc(Cl)cc(NS(=O)(=O)N5CCCC5)c4F)c(-c4ccncc4)n3)nc2)CCN1CC1CCN(c2ccc(N3CCC(=O)NC3=O)cc2)CC1` [Compound 324, N-[5-chloro-3-(1-{5-[(3R)-4-({1-[4-(2,4-dioxo-1,3-diazinan-1-yl)phenyl]piperidin-4-yl}methyl)-3-methylpiperazin-1-yl]pyridin-2-yl}-3-(pyridin-4-yl)-1H-pyrazol-4-yl)-2-fluorophenyl]pyrrolidine-1-sulfonamide], the DC50 [1, 5] is reported as 0.05 to 0.5 µM, the Dmax [1, 6] is reported as 30 to 70% and the DC50 [2, 7] is reported as less than 0.01 µM. The Dmax [2, 8] was 30 to 70%, the DC50 [3, 9] was less than 0.01 µM and the Dmax [3, 10] was 30 to 70%. The DC50 [4, 11] was less than 0.01 µM and the Dmax [4, 12] was greater than 70%.

In the case of `CCN(C)S(=O)(=O)Nc1cccc(-c2nc(C)sc2-c2ccnc(Nc3ccc(N4CCN(CC5(F)CCN(c6ccc(C7CCC(=O)NC7=O)cc6)CC5)CC4)cn3)n2)c1F` (racemic) [Compound 33, Rac-(3S)-3-{4-[4-({4-[6-({4-[4-(3-{[ethyl(methyl)sulfamoyl]amino}-2-fluorophenyl)-2-methyl-1,3-thiazol-5-yl]pyrimidin-2-yl}amino)pyridin-3-yl]piperazin-1-yl}methyl)-4-fluoropiperidin-1-yl]phenyl}piperidine-2,6-dione], the DC50 [1, 13] is reported as less than 0.01 µM, the Dmax [1, 14] is reported as 30 to 70% and the DC50 [2, 15] is reported as 0.01 to 0.05 µM. The Dmax [2, 16] was 30 to 70%, the DC50 [3, 17] was less than 0.01 µM and the Dmax [3, 18] was 30 to 70%. It also gave a DC50 [4, 19] of 0.01 to 0.05 µM and a Dmax [4, 20] greater than 70%.

In the case of `CCCS(=O)(=O)Nc1cccc(-c2nc(C)sc2-c2ccnc(Nc3ccc(C4CCN(C(=O)CC5CCN(c6ccc(NC7CCC(=O)NC7=O)cc6)CC5)CC4)cc3)n2)c1F` (racemic) [Compound 44, Rac-N-{3-[5-(2-{[4-(1-{2-[1-(4-{[(3R)-2,6-dioxopiperidin-3-yl]amino}phenyl)piperidin-4-yl]acetyl}piperidin-4-yl)phenyl]amino}pyrimidin-4-yl)-2-methyl-1,3-thiazol-4-yl]-2-fluorophenyl}propane-1-sulfonamide], the DC50 [1, 13] is reported as greater than 0.5 µM, the Dmax [1, 14] is reported as less than 30% and the DC50 [2, 15] is reported as greater than 0.5 µM. It also gave a Dmax [2, 16] of less than 30%, a DC50 [3, 17] greater than 0.5 µM and a Dmax [3, 18] of less than 30%. The DC50 [4, 19] was less than 0.01 µM and the Dmax [4, 20] was greater than 70%.
